Measured values: patent publication US20240252688A1, “COMPOSITIONS AND METHODS FOR ENHANCED PROTEIN PRODUCTION” (HDT Bio Corp., priority 2021, published 2024)

Legend:
IFIT2 [1] = assay: NP-35 co-transfection: IFIT2 induction; format: cell-based, human; settings: NP-35-formulated compound, A549-Dual cells
C57BL/6 mice = assay: IM injection of repRNA-SEAP with nanoparticle-encapsulated inhibitors: serum SEAP; format: in vivo; settings: 500 μM dose level versus equivalent no compound group, days 3-28
Protocol: The ten candidate compounds were formulated in NP-1 nanoparticle emulsion to evaluate their effect on expression when co-delivered with repRNA. All compounds were readily soluble in non-polar solvents which enabled dissolution in the lipophilic squalene oil phase of NP-1. A probe sonication process was adapted to formulate candidate compounds in 1 mL batches of nanoparticle emulsions. The z-average nanoparticle diameter was measured by dynamic light scattering (DLS) and ranged from 110-130 nm. Activity of compounds formulated in nanoparticle emulsions was tested both in vitro (FIG. 11A). Cells were transfected with 20 ng repRNA per well in the presence of IFN and delivered with empty nanoparticles (no inhibitor) or nanoparticle encapsulating a compound inhibitor delivered at a calculated 0.5 μM per well. […] C57BL/6 female mice (6-8 weeks old; n=3/group) were injected by IM route with 10 μg repRNA-SEAP complexed with empty nanoparticles (no compound) or nanoparticles encapsulating a small molecule inhibitor at 500 μM. The positive control group received an IFNAR-1 blocking monoclonal antibody (MAR1-5A3) by intraperitoneal (IP) injection one day before IM injection of NP-1/repRNA-SEAP. […]

BALB/c mice = assay: Systemic (IV) compounds with IM NP-1/repRNA-ZIKV-117: serum ZIKV-117; format: in vivo; settings: for ZIKV-117 expression compared to no compound group: compound IV (Dinaciclib 5 mg/kg, CDKI-73 5 mg/kg, AZD4573 1 mg/kg), 10 μg repRNA-ZIKV-117 IM, days 3-28
Protocol: The purpose of the experiment was to evaluate the effect of systemically administered compound inhibitors on protein expression.
A molar ratio of nitrogen to phosphate (N:P) for each of the formulation was adjusted. […] Each compound was formulated as an aqueous solution or suspension following instructions from the vendor (MedChemExpress). At the same time as systemic compound treatment, mice were given 10 μg repRNA-encoding ZIKV-117 mAb complexed to nanoparticles by IM injection in the hind leg. Mice were bled on days 3, 5, 7, 10, 14, 21 and 28 after administration of NP-1/repRNA-ZIKV-117, and assayed for ZIKV-117 levels in serum. The positive control group received an IFNAR-1 blocking monoclonal antibody (MAR1-5A3) by intraperitoneal (IP) injection one day before administration of NP-1/repRNA-ZIKV-117.

IFIT2 [2] = assay: Single-point screen: IFIT2 activation (Lucia luciferase, QUANTI-Luc); format: cell-based, human; settings: Homo sapiens, 24 h; A549-Dual cells, compound 50 μM pre-treatment, NP-1+mRNA 20 ng/well + IFN; read-out: fold IFIT over IFN
Source text: (§1) The cells produce secreted embryonic alkaline phosphatase (SEAP), under the control of the interferon beta […] minimal promoter fused to five NF-κB binding sites. The cells also secrete lucia luciferase under the control of IFIT2 promoter.

NF-κB [3] = assay: Single-point screen: NFκB activation (SEAP reporter); format: cell-based, human; settings: Homo sapiens, 24 h; A549-Dual cells, compound 50 μM pre-treatment, NP-1+mRNA 20 ng/well + IFN; read-out: fold NFkB over IFN
Source text: as §1

A549-Dual cells [4] = assay: Single-point kinase inhibitor library screen: nLuc expression from NP-1+mRNA-nLuc in IFN-treated cells; format: cell-based, human; settings: Homo sapiens, compound 50 μM pre-treatment, NP-1+mRNA 20 ng/well + IFN, read-out: fold nLuc over RNA + IFN
Protocol: as §1
To measure protein expression from mRNA, which is the primary readout for compound down selection, mRNA encoding a secreted version of nanoluciferase (mRNA-nLuc) was used. Protein expression was measured via a luminometer using standard techniques.
As additional criterion, expression in compound treated cells was compared relative to mRNA-transfected cells without IFN (“RNA only”) (data not shown).
A library of small molecule kinase inhibitors was screened for the ability to enhance expression of mRNA-encoded genes when co-delivered with mRNA.

A549-Dual cells [5] = assay: Single-point screen: cell viability by CellTiter-Glo; settings: A549-Dual cells incubated overnight with compound at 50 μM, then NP-1+mRNA 20 ng/well + IFN 1:50
Protocol: Finally, cell lysates were assayed with the CellTiter-GLO® assay (Promega) to obtain a luminescent-based measure of cell viability. In summary, the readouts from the high throughput screen included the primary measure of nLuc protein expression and three secondary readouts: IFIT, NF-κB and cell viability.
For each assay, A549-dual cells were plated at a seeding density of about 5×10^4 cells per well. Cells were incubated overnight with compounds at 50 microMolar (μM) in 1% v/v dimethyl sulfoxide (DMSO). For control wells, 1% DMSO was added to each well. After about 24 hours, the culture medium was removed, and cells were transfected with NP-1+mRNA at 20 ng/mRNA/well in Opti-MEM® media (Thermofisher). Interferon (IFN) was diluted to 1:50 in all test wells except for the RNA only wells and media only wells. Anti-IFN was diluted 1:1000 in “RNA+anti-IFN+IFN” wells. Cells were incubated for 4 hours, and culture medium was added to the Opti-MEM® medium. After 24 hours, assay supernatants were collected and analyzed for nLuc expression, IFIT2 (qLuc), and NFκB (qBLUE-SEAP™, InvivoGen) activation. Cells were then lysed, and cell viability was determined by CellTiter-Glo® (Promega) assay.

NF-κB [6] = assay: NP-35 co-transfection: NF-κB induction; format: cell-based, human; settings: highest concentrations of NP-35-formulated compound
Protocol: The objective of this experiment was to evaluate co-transfection of LNP (e.g., NP-35) with lead small molecule inhibitor compounds for enhancing protein expression from repRNA in transfected cells. […] LNP was formulated according to NP-35 formulation. Additionally, nanoparticles were also formulated according to […] formulation. About 5×10^4 A549-Dual cells were incubated at 37° C. with 5% CO2 for 18-24 hours with the compound at a concentration ranging from 1 μg to 0.06 ng. The cells were then treated with repRNA-nLuc, IFN, and nanoparticles (NP-35 or NP-30). The treated cells were incubated at 37° C. with 5% CO2 for 18-24 hours. nLuc expression was measured by Nano-GLO assay and plotted against the concentration of repRNA-nLuc that was used for the transfection (FIG. 14A-14H).

A549-Dual cells [7] = assay: NP-35 co-encapsulating repRNA-nLuc and Dinaciclib: nLuc expression; format: cell-based, human; settings: 0.5 mM Dinaciclib co-encapsulated, A549-Dual cells + IFN
Protocol: Briefly, A549-Dual cells were incubated at 37° C. with 5% CO2 for 18-24 hours. […] About 5×10^4 cells were transfected with the formulation at different concentrations in the presence of IFN. The transfected cells were incubated at 37° C. with 5% CO2 for 18-24 hours. nLuc expression was measured by Nano-GLO assay and plotted against the concentration of repRNA-nLuc that was used for the transfection (FIG. 15).

[8] = target: mouse IFN alpha/beta receptor (IFNAR-1) (mouse) (UniProt P33896); assay: cell-based or functional assay
Chain of mouse IFN alpha/beta receptor (IFNAR-1) (mouse) (P33896 27-590 limits assumed): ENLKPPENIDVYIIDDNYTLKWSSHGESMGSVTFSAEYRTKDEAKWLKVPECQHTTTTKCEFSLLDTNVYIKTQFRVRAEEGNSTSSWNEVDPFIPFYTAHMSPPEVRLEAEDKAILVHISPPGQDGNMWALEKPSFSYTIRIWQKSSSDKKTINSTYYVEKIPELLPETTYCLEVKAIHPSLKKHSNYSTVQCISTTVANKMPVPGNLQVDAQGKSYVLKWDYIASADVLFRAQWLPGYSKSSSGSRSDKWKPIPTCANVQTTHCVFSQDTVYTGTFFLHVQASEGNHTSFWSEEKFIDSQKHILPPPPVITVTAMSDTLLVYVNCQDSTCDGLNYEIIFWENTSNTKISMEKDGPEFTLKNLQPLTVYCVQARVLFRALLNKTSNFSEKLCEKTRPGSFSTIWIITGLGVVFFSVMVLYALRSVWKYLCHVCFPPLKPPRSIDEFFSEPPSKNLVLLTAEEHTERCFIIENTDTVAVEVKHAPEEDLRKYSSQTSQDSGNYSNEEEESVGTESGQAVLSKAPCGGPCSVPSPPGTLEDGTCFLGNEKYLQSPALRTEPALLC

In the case of `CC(=O)N[C@@H]1CCC[C@H](C(=O)Nc2cc(-c3cnn4c3CC(C)(C)C4)c(Cl)cn2)C1` [AZD4573, (1S,3R)-3-acetamido-N-[5-chloro-4-(5,5-dimethyl-4,6-dihydropyrrolo[1,2-b]pyrazol-3-yl)pyridin-2-yl]cyclohexane-1-carboxamide], the IFIT2 induction (IFIT2 [1]) is reported as “significant dose-dependent reduction in IFIT2 induction”, the “total protein (SEAP) expression, AUC of expression kinetics” value (C57BL/6 mice) is reported as “significant increase in total protein expression” and the “ZIKV-117 expression compared to no compound group” value (BALB/c mice) is reported as “higher total expression than no compound group but not statistically significant”.

For `CC(C)n1cnc2c(NCc3nc4c(F)c(F)ccc4[nH]3)nc(N3CCCC[C@H]3CCO)nc21` [CDK12-IN-3, 2-[(2S)-1-[6-[(4,5-difluoro-1H-benzimidazol-2-yl)methylamino]-9-propan-2-ylpurin-2-yl]piperidin-2-yl]ethanol], the IFIT2 induction (IFIT2 [1]) was “significant dose-dependent reduction in IFIT2 induction”.

For `COc1ccc(F)cc1-c1cc(NC(=O)[C@@H]2CCCNC2)ncc1Cl` [CDK-IN-2, (3R)-N-[5-chloro-4-(5-fluoro-2-methoxyphenyl)pyridin-2-yl]piperidine-3-carboxamide], the fold induction at 50 µM (IFIT2 [2]) was 1.06, the IFIT2 induction (IFIT2 [1]) was “significant dose-dependent reduction in IFIT2 induction” and the fold induction at 50 µM (NF-κB [3]) was 0.28. For the same compound, the fold induction at 50 µM (A549-Dual cells [4]) was 157, the “% viability” value (A549-Dual cells [5]) was 23% and the “IFN-beta mediated NF-κB induction relative to cells transfected with NP-35” value (NF-κB [6]) was “slight increase in IFN-beta mediated NF-κB induction”.

For `CNc1nc(C)c(-c2nc(Nc3cccc(S(N)(=O)=O)c3)ncc2F)s1` [CDKI-73, 3-[[5-fluoro-4-[4-methyl-2-(methylamino)-1,3-thiazol-5-yl]pyrimidin-2-yl]amino]benzenesulfonamide], the “ZIKV-117 expression compared to no compound group” value (BALB/c mice) was “higher total expression than no compound group but not statistically significant” and the “IFN-beta mediated NF-κB induction relative to cells transfected with NP-35” value (NF-κB [6]) was “slight increase in IFN-beta mediated NF-κB induction”.

`CCc1cnn2c(NCc3ccc[n+]([O-])c3)cc(N3CCCC[C@H]3CCO)nc12` [Dinaciclib, 2-[(2S)-1-[3-ethyl-7-[(1-oxidopyridin-1-ium-3-yl)methylamino]pyrazolo[1,5-a]pyrimidin-5-yl]piperidin-2-yl]ethanol] was tested, and the “nLuc expression relative to NP-35/repRNA-nLuc without Dinaciclib” value (A549-Dual cells [7]) was “significantly enhanced nLuc expression”, the IFIT2 induction (IFIT2 [1]) was “significant dose-dependent reduction in IFIT2 induction” and the “ZIKV-117 expression compared to positive control (anti-IFNAR-1)” value (BALB/c mice; Dinaciclib 5 mg/kg IV) was “more rapid and higher magnitude expression”. The “ZIKV-117 expression compared to no compound group” value (BALB/c mice) was “significantly enhanced ZIKV-117 expression”.

`CC(C)c1c2cc(-c3ccnc(NC4CCC(NC5CCOCC5)CC4)n3)ccc2nn1C` (centres unmarked) [LY2857785, 4-N-[4-(2-methyl-3-propan-2-ylindazol-5-yl)pyrimidin-2-yl]-1-N-(oxan-4-yl)cyclohexane-1,4-diamine] was tested, and the “IFN-beta mediated NF-κB induction relative to cells transfected with NP-35” value (NF-κB [6]) was “slight increase in IFN-beta mediated NF-κB induction”.

In the case of `Nc1nc(N[C@H]2C[C@@H]3CC[C@H]2C3)sc1C(=O)c1ccccc1[N+](=O)[O-]` [MC180295, [4-amino-2-[[(1S,2S,4R)-2-bicyclo[2.2.1]heptanyl]amino]-1,3-thiazol-5-yl]-(2-nitrophenyl)methanone], the “IFN-beta mediated NF-κB induction relative to cells transfected with NP-35” value (NF-κB [6]) is reported as “slight increase in IFN-beta mediated NF-κB induction”.

With `O=C1NCCSc2c1sc1ccc(O)cc21` [kb NB 142-70, 9-hydroxy-3,4-dihydro-2H-[1]benzothiolo[2,3-f][1,4]thiazepin-5-one] the fold induction at 50 µM (IFIT2 [2]) was 2.31, the fold induction at 50 µM (NF-κB [3]) was 0.61 and the fold induction at 50 µM (A549-Dual cells [4]) was 187. For the same compound, the “% viability” value (A549-Dual cells [5]) was 52%.

In the case of “IFNAR-1 blocking monoclonal antibody (MAR1-5A3)”, the SEAP expression in serum of C57BL/6 mice on day seven after IM injection of NP-1/repRNA-SEAP [8] is reported as 10 fold.
